These are literature values, as cited in patent US4181708A, “Rumen-stable pellets” (Eastman Kodak Company, priority 1978, dated 1980).

Like-named read-outs stand apart in the source and are kept apart here.

For this data set the following is noted: for Solubility: water.

On to `N[C@@H](CS)C(=O)O` [L(-) - Cysteine], for which the “pH of saturated solution” value is 3.7 and the Solubility is reported as 0.01 g./100 g. water.

In the case of `NC(=O)C[C@H](N)C(=O)O` [L - Asparagine], the “pH of saturated solution” value is on record as 4.7 and the Solubility is reported as 3.1 g./100 g. water.

For `CC(N)C(=O)O` (racemic) [DL - Alanine], the “pH of saturated solution” value is on record as 6.2.

On to `CC(C)C[C@H](N)C(=O)O` [L(-) - Lencine], for which the Solubility (at 25° C.) is listed as 2.0 g./100 g. water.

On to `CSCCC(N)C(=O)O` (racemic) [DL - Methionine], for which the “pH of saturated solution” value was 5.7.

Regarding `N[C@@H](Cc1ccc(O)cc1)C(=O)O` [L(-) - Tyrosine], the “pH of saturated solution” value was 7.3.

Consider `N=C(N)NCCC[C@H](N)C(=O)O` [L - Arginine], for which the “pH of saturated solution” value is 11.8.

Turning to `NC(Cc1ccccc1)C(=O)O` (racemic) [DL - Phenylalanine], the “pH of saturated solution” value is given as 5.6. Moreover, the Solubility (at 25° C.) was 3.0 g./100 g. water.
